Source: ChEMBL document CHEMBL1127656, “Articulating a pharmacophore driven synthetic strategy: Discovery of a potent substance P antagonist” (Bioorg Med Chem Lett, 1994)

Biological target: Substance-P receptor (Homo sapiens, UniProt P25103)
Assay: In vitro binding affinity towards human NK-1 receptor in IM-9 cells using [3H]SP of substance P antagonist
Type: cell-based

Substance-P receptor, sequence (P25103 whole entry): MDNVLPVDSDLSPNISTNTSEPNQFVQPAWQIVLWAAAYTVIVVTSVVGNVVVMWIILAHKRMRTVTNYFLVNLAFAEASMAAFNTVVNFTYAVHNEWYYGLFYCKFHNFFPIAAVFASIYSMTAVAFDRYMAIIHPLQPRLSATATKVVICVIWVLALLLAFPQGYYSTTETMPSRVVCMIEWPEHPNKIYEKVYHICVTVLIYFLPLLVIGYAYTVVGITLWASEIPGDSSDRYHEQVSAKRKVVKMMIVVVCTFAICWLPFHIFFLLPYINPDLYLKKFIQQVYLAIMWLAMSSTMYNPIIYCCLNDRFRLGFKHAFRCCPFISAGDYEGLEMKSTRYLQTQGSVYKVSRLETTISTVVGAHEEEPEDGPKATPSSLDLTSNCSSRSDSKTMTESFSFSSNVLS

Ki: 2.4 nM
Structure (SMILES): COc1ccccc1CN[C@H]1[C@@H]2CCC[C@@H]2N[C@H]1c1ccccc1 (racemic)
